Our source for the Kd values is ChEMBL document CHEMBL1122492, “Synthesis of iodine-125 labeled (+/-)-15-(4-azidobenzyl)carazolol: a potent beta-adrenergic photoaffinity probe” (J Med Chem, 1983).

The nature of assay [1]: Dissociation constant against beta adrenergic receptor of turkey erythrocyte membranes.
Assay [2] is described as follows: Dissociation constant against beta adrenergic receptor of frog erythrocyte membranes.
A short description of assay [3]: Dissociation constant against beta adrenergic receptor.

What is called Kd is the free concentration of one partner at which half of the binding sites on the other are occupied at equilibrium, for simple one-to-one binding. Turning to `CC(C)(Cc1ccc(N=[N+]=[N-])cc1)NCC(O)COc1ccc(I)c2[nH]c3ccccc3c12` (stereo not given), the Kd in assay [1] and in assay [2] was 20 pM in each case.

In the case of `CC(C)NCC(O)COc1cccc2[nH]c3ccccc3c12` (stereo not given) [CARAZOLOL], the Kd in assay [3] was 100 pM.

Regarding `CC(C)(Cc1ccc(N=[N+]=[N-])c(I)c1)NCC(O)COc1cccc2[nH]c3ccccc3c12` (stereo not given), the Kd in assay [1] and in assay [2] was 20 pM each time.
